Drawing on the METLIN SMRT retention time set (Domingo-Almenara et al. 2019), this text covers RP-LC retention time for 77 molecules.

This series is described as follows: gradient 5% acetonitrile 3 min, to 50% in 2 min, to 85% in 15 min, held 3 min, 100 µL/min. To be noted: column: Zorbax Extend-C18 2.1 x 50 mm; eluents: water / acetonitrile, 0.1% formic acid. In short, it runs like this:
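The mobile phases were water and acetonitrile, each with 0.1% formic acid, pumped at 100 μL/min through a Zorbax Extend-C18 column (2.1 × 50 mm, 1.8 μm). Pure standards were injected as mixtures of ~100 molecules and detected by a quadrupole time-of-flight mass spectrometer in positive and negative ionization mode. Retention time came from computationally picked adduct peaks, each inspected by hand.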
Take `O=C(c1cc(F)ccc1F)N1CCC2(CC1)N=C(c1ccc(Cl)cc1)NO2`: the RP-LC retention time amounted to 902 s. `CCOC(=O)N1CCc2c(sc(NC(=O)C3CCCN(S(C)(=O)=O)C3)c2C#N)C1` (configuration not stated) returned an RP-LC retention time of 767 s. The figure for `O=C(CC1CCN(C(=O)c2ccc3nc(-c4ccccc4)oc3c2)CC1)NCC1CCCO1` (configuration not stated) is 722 s; for `CN(C)c1cc(-n2cnc(C(=O)NCc3ccc(Cl)cc3)c2)ncn1` it is 825 s. Turning to `CCC(=O)Nc1ccc(-n2cnc(C(=O)NC(C)c3ccccc3)c2)nc1` (configuration not stated), the RP-LC retention time is 722 s.

In turn, `Cc1nc(-c2csc(S(=O)(=O)N3CCCC(C(=O)N4CCC5(CC4)OCCO5)C3)c2)no1` (configuration not stated) showed an RP-LC retention time of 798 s. The figure for `CCOc1ccc(NC(=O)Cn2cnc3nc(N4CCCC(C(=O)NC(C)C)C4)sc3c2=O)cc1` (configuration not stated) is 698 s; for `Cc1noc(-c2nn(C)c3c2CN(C(=O)COc2ccc(F)cc2)CC3)n1` it is 740 s; for `Cn1nc(C(=O)N2CCCCC2)c2c1CCN(C(=O)CCC(=O)N1CCC(N3CCCCC3)CC1)C2` it is 586 s. With `O=C(CCn1c(=O)oc2ccccc21)NCc1ccc2c(c1)OCO2`, the RP-LC retention time came to 941 s. The same measure for `CCc1ccc(-c2cc3c(=O)n(CC(=O)NCC4CCCN4CC)nc(C)n3n2)cc1` (configuration not stated): 713 s; for `CCc1cccc(C)c1NC(=O)CN1C(=O)NC2(CCCCC2)C1=O`: 804 s. The figure for `CCOc1cc(=O)c(C(N)=O)nn1-c1ccc(C)cc1` is 613 s; for `Cc1cc(C)cc(N2C=NS(=O)(=O)c3cccnc32)c1` it is 837 s. The figure for `Cc1ccc(Cn2c(=O)c3nn(C)cc3n3c(=O)n(Cc4ccc(N5CCCC5=O)cc4)nc23)cc1` is 812 s; for `Cc1ccc(NC(=O)C2CCN(S(=O)(=O)c3cc(C(=O)N4CCCC4)n(C)c3)CC2)cc1Cl` it is 875 s. Consider `Cn1cc(NC(=O)N2CCN(c3ccccn3)CC2)c2ccccc2c1=O`, for which the RP-LC retention time stood at 538 s. The same measure for `FC(F)(F)c1cc(-c2cccs2)n(-c2nc(-c3ccccc3)cs2)n1`: 1450 s; for `COc1ccc(S(=O)(=O)N2CCC(c3noc(-c4ccccc4C)n3)CC2)cc1OC`: 1090 s; for `CCOc1ccc(NC(=O)COc2cc(C(=O)OC)nc3ccc(OC)cc23)cc1`: 817 s. Turning to `CCOc1ccc(-c2cc3c(=O)n(Cc4nc(-c5ccc(C)cc5)no4)ncn3n2)cc1`, the RP-LC retention time was 784 s. The same measure for `CC(C)Cn1cc(CCNS(=O)(=O)c2ccc(F)c(Cl)c2)c2cccnc21`: 1000 s; for `CCCn1cc(C(=O)NC2CCCC2)c2cccnc21`: 794 s. The figure for `CCCNc1cc(N2CCC(CCC(=O)Nc3ccc(OC)c(OC)c3)CC2)ncn1` is 648 s.

For the molecule `Cc1ccc(-n2c(=O)c3c(cc(C)n3C)n(CC(=O)Nc3cccc(Cl)c3)c2=O)cc1`, the RP-LC retention time amounted to 937 s. In the case of `O=C(c1ccc(-c2csc(C3CC3)n2)cc1)N1CCN(c2ccccn2)CC1`, the RP-LC retention time came to 650 s.

Take `O=C(CSc1ncnc2ccccc12)NCCc1ccccc1`: the RP-LC retention time was 706 s. Molecule `CCc1ccc(N2C(=O)Nc3ccccc3C2(O)C(=O)NCCN(CC)CC)cc1` (configuration not stated) displayed an RP-LC retention time of 575 s.

Regarding `O=C(CSc1ccc(N2CCCC(C(=O)NC3CC3)C2)nn1)Nc1cccc(Br)c1` (configuration not stated), the RP-LC retention time came out at 664 s. The same measure for `COc1cccc(-c2c(C(=O)O)nnn2-c2ccc3c(c2)OCCO3)c1`: 744 s; for `Cc1ccn2cc(C(=O)NC3CCCCC3)nc2c1`: 627 s. The same measure for `CC(C)c1nn2c(S(=O)(=O)NCc3cccs3)c(C(C)C)nc2s1`: 966 s; for `Cc1ccc(NC(=O)C2CCCN(c3cc(=O)n(C)c(=O)n3C)C2)cc1C` (configuration not stated): 746 s.

`CCOC(=O)C1CCN(C(=O)CN2C(=O)C3CCCCN3c3ccc(C(=O)N(C)C)cc32)CC1` (configuration not stated): the RP-LC retention time amounted to 732 s. Consider `O=c1ccn(-c2ccc(Cl)cc2)nc1-c1nc(-c2ccc3c(c2)OCO3)no1`, for which the RP-LC retention time is 913 s. Molecule `COc1ccc2c(c1)C1(CCN(C(=O)c3ccc(OC)c(OC)c3)C1)C(=O)N2` (configuration not stated) gave an RP-LC retention time of 674 s. The figure for `COc1cccc(-c2noc(C3CCCN3C(=O)Nc3ccc4c(c3)OCO4)n2)c1` (configuration not stated) is 896 s; for `Cn1c(N)c(S(=O)(=O)Nc2ccc(Br)cc2)c(=O)n(C)c1=O` it is 672 s. The same measure for `CN1C(=O)c2cc(S(=O)(=O)NCc3ccc(Cl)cc3)ccc2Oc2cccnc21`: 968 s; for `Cc1ccc(NC(=O)C2CCCN(S(=O)(=O)c3cc(-c4noc(C)n4)cs3)C2)c(C)c1` (configuration not stated): 983 s; for `O=C(c1ccncc1)N1CC(C(=O)N2CCN(c3ccccn3)CC2)C2(CCCCC2)C1` (configuration not stated): 570 s. The figure for `CCCCNC(=O)Cn1c2ccccc2c2ncn(Cc3nc(-c4ccccc4)no3)c(=O)c21` is 910 s; for `O=C(NCc1cccs1)C1CCN(S(=O)(=O)c2cc(C(=O)N3CCOCC3)cs2)CC1` it is 803 s; for `CCN1CCN(c2nc3c(s2)CN(C(=O)CCC(C)C)CC3)CC1` it is 614 s. On to `Cc1ccc(Nc2c(-c3ccc(Cl)cc3)nc3cc(C)ccn23)cc1`, for which the RP-LC retention time turned out to be 807 s. Molecule `COc1ccc(Cl)cc1NC(=O)Cn1nc2c(N3CCCCCC3)nccn2c1=O` yielded an RP-LC retention time of 804 s. `Cc1ccc(NC(=O)Cn2c(C(C)C)nc3c(c2=O)CCN(Cc2ccccc2)C3)cc1` came in with an RP-LC retention time of 714 s. The same measure for `COc1cccc(NS(=O)(=O)c2cc(-c3[nH]ncc3C(=O)N3CCCCC3)oc2C)c1`: 721 s.

In the case of `O=C(Cc1cccn1-c1ccccc1)NCc1cc(F)ccc1F`, the RP-LC retention time is 936 s.

Molecule `O=C(NCCc1ccccc1)c1nc(Cn2c(=O)oc3ccc(Cl)cc32)no1` yielded an RP-LC retention time of 966 s. The molecule `CCn1c(=O)c(C(=O)Nc2cccc(SC)c2)c(O)c2sccc21` had an RP-LC retention time of 1290 s. `Cc1nnc(N2CCCC(C(=O)NCCCN3CCCC3=O)C2)c2nn(-c3ccccc3)c(C)c12` (configuration not stated) displayed an RP-LC retention time of 616 s.

Take `Cc1ccc(-c2csc(Cc3nc(-c4ccc(C)cc4)no3)n2)cc1`: the RP-LC retention time was found to be 1320 s. The same measure for `Cc1ccc(CC(=O)N2CCC3(CC2)NC(=O)c2cc(F)ccc2N3C)cc1`: 804 s. In turn, `Cc1c(S(=O)(=O)NCCC2CCN(C(=O)c3ccc(F)cc3)CC2)cnn1C(F)F` gave an RP-LC retention time of 813 s. In the case of `Cc1cc(F)ccc1NC(=O)C1CCN(C(=O)c2ncn3c2COC(c2ccc(F)cc2)C3)CC1` (configuration not stated), the RP-LC retention time was found to be 736 s. The same measure for `O=C1NCCN2CC3(CCN(C(=O)Nc4ccccc4F)CC3)CC12` (configuration not stated): 564 s. In turn, `CN(C)[C@@H]1CN(Cc2ccc(F)c(F)c2)CC[C@@H]1CO` yielded an RP-LC retention time of 434 s.

As for `Cc1ccccc1CNC(=O)C1CCCN(c2nnc(C)c3c(C)n(-c4ccc(Cl)cc4)nc23)C1` (configuration not stated), the RP-LC retention time turned out to be 784 s. The same measure for `O=C(NCc1cc(F)cc(F)c1)C1CCN(c2ccc(SCc3ccccc3)nn2)CC1`: 791 s; for `O=C(Nc1ccc2c(c1)OCCO2)C1CN(S(=O)(=O)C2CC2)CC12CCCCC2` (configuration not stated): 881 s; for `Cc1ccc(CNC(=O)C2(C)CCN(S(=O)(=O)c3ccc(Br)cc3)CC2)cc1`: 1030 s.

The molecule `COc1cccc(-c2nc(C3CCN(S(=O)(=O)c4cccc(F)c4)CC3)no2)c1` came in with an RP-LC retention time of 1110 s. Molecule `CC(C)n1cnnc1CC1CN(C(=O)Nc2ccccc2Cl)C1` gave an RP-LC retention time of 640 s. Molecule `CC1CCc2nc3ncn(CC(=O)NCCc4ccc(Cl)cc4)c(=O)c3cc2C1` (configuration not stated) came in with an RP-LC retention time of 756 s. Regarding `C=CCNC(=O)[C@@H]1[C@H](c2cc(OC)c(OC)c(OC)c2)c2cc3c(cc2[C@H](O)[C@H]1CO)OCO3`, the RP-LC retention time was 649 s. Take `COc1ccc(C2(C(=O)N3CC(c4ncc(C)n4Cc4cccnc4)C3)CC2)cc1`: the RP-LC retention time was 593 s.

Molecule `Cc1nc2cc(N3CC(C(=O)NCc4ccc(OC(C)C)cc4)CC3=O)ccc2o1` (configuration not stated) showed an RP-LC retention time of 778 s. The figure for `Nc1nc(SCC(=O)Nc2cccc(-c3nc4ccccc4s3)c2)n[nH]1` is 667 s. Consider `Cc1ccc(C)c(N2CCN(c3ccnc(SCC(=O)Nc4cccc(Cl)c4)n3)CC2)c1`, for which the RP-LC retention time was determined as 999 s. The same measure for `COc1ccc(-c2cc3ccccc3[nH]2)cc1`: 1100 s; for `Cc1cc(Br)ccc1NC(=O)C1CCCN(c2ncnc3c2nc2n3CCCCC2)C1` (configuration not stated): 895 s. The same measure for `CCc1nnc(C2CCN(C(=O)c3cc(C)on3)CC2)s1`: 624 s; for `Cc1ccc(Cn2c(CN3CCC(C(=O)NC(C)C)CC3)cc3ccccc32)cc1`: 747 s; for `O=c1c2cc3c(cc2nc(SCc2nc(-c4cccc(F)c4)no2)n1CC1CCCO1)OCO3` (configuration not stated): 1110 s. With `O=C(NCc1ccc2c(c1)OCO2)c1nnc(-c2ccc(S(=O)(=O)N3CCCC3)cc2)o1`, the RP-LC retention time was 854 s. Molecule `CCOc1ccccc1-c1noc(-c2nnn(Cc3nc(-c4ccccc4OC)oc3C)c2C)n1` yielded an RP-LC retention time of 1070 s.
